Values quoted from earlier work, collected in US20060062853A1 (Medical Research Institute, priority 2004, published 2006).

Key:
[1] = such as juices
[2] = not given; remark: listed apart in the source

CN(CC(=O)O)C(=N)N [creatine, N-(aminoiminomethyl)-N-methylglycine]
creatine lost from the cell (70 kg male): approximately 2 grams per day | loss of creatine from skeletal muscle (skeletal muscle): about 3 % per day | stability in acidic solutions [1]: not stable | half-life in blood plasma [2]: 1 to 1.5 h
